Where “and” joins values, the source holds several entries; their conditions need not be identical. Equal entries are not always repeated.
Assay: xn = mol fraction of the nth substance listed
Settings: 100 kPa; for electrical conductivity: Alternating current cell with electrodes; for viscosity: Concentric cylinders viscometry; for mass density: Vibrating tube method

CCCCCCCCOS(=O)(=O)[O-].CCn1cc[n+](C)c1 [1-ethyl-3-methylimidazolium octyl sulfate] + O
Settings	electrical conductivity	mass density	viscosity
287.1 K, Liquid, x1 = 0.1402	–	1076.8 kg/m3	–
287.1 K, Liquid, x1 = 0.1605	–	1079.2 kg/m3	–
287.1 K, Liquid, x1 = 0.2632	–	1088.7 kg/m3	–
287.1 K, Liquid, x1 = 0.3076	0.375 S/m and 0.377 S/m	1091.2 kg/m3	169.3 mPa·s
287.6 K, Glass, x1 = 0.2632	0.469 S/m	–	10720 mPa·s and 11920 mPa·s
287.6 K, Liquid, x1 = 0.2632	–	1088.5 kg/m3 and 1088.8 kg/m3	–
288.1 K, Glass, x1 = 0.1402	–	–	1042 mPa·s
288.1 K, Glass, x1 = 0.1605	–	–	13780 mPa·s and 15800 mPa·s
288.1 K, Glass, x1 = 0.1766	0.844 S/m and 0.846 S/m	–	–
288.1 K, Glass, x1 = 0.2119	0.682 S/m and 0.681 S/m	–	–
288.1 K, Glass, x1 = 0.2632	0.48 S/m and 0.478 S/m	–	8600 mPa·s
288.1 K, Liquid, x1 = 0.0401	1.7 S/m	–	–
288.1 K, Liquid, x1 = 0.0586	1.67 S/m	–	–
288.1 K, Liquid, x1 = 0.0803	1.51 S/m	–	–
288.1 K, Liquid, x1 = 0.1197	–	1072.5 kg/m3	78.76 mPa·s
288.1 K, Liquid, x1 = 0.1402	1.03 S/m	1076 kg/m3	–
288.1 K, Liquid, x1 = 0.1605	0.932 S/m and 0.934 S/m	1078.8 kg/m3 and 1078.7 kg/m3	–
288.1 K, Liquid, x1 = 0.2632	–	1088.3 kg/m3	–
288.1 K, Liquid, x1 = 0.3076	0.389 S/m and 0.388 S/m	1090.5 kg/m3	159.4 mPa·s
288.1 K, Liquid, x1 = 0.3555	0.293 S/m and 0.294 S/m	1092.7 kg/m3	183.7 mPa·s
288.1 K, Liquid, x1 = 0.4108	0.24 S/m and 0.237 S/m	1094.5 kg/m3	206.8 mPa·s
288.1 K, Liquid, x1 = 0.4688	0.166 S/m and 0.159 S/m	–	–
288.1 K, Liquid, x1 = 0.5001	0.15 S/m	–	–
288.6 K, Glass, x1 = 0.2632	0.485 S/m	–	–
289.1 K, Glass, x1 = 0.1402	–	–	396.1 mPa·s
289.1 K, Glass, x1 = 0.1605	–	–	8364 mPa·s and 8406 mPa·s
289.1 K, Glass, x1 = 0.1766	0.868 S/m and 0.871 S/m	–	–
289.1 K, Glass, x1 = 0.2632	0.489 S/m	–	3435 mPa·s
289.1 K, Liquid, x1 = 0.1197	1.21 S/m	–	–
289.1 K, Liquid, x1 = 0.1402	1.06 S/m	1074.9 kg/m3	–
289.1 K, Liquid, x1 = 0.1605	0.964 S/m and 0.963 S/m	1078.4 kg/m3	–
289.1 K, Liquid, x1 = 0.2632	0.494 S/m	1087.8 kg/m3	–
289.1 K, Liquid, x1 = 0.3076	–	1089.8 kg/m3	150 mPa·s
289.6 K, Glass, x1 = 0.2632	–	–	1082 mPa·s
289.6 K, Liquid, x1 = 0.2632	0.503 S/m	1087.9 kg/m3	–
290.1 K, Glass, x1 = 0.1402	–	–	213.6 mPa·s
290.1 K, Glass, x1 = 0.1605	–	–	5299 mPa·s and 4500 mPa·s
290.1 K, Glass, x1 = 0.1766	0.895 S/m and 0.899 S/m	–	–
290.1 K, Glass, x1 = 0.2119	0.728 S/m	–	–
290.1 K, Liquid, x1 = 0.1402	–	1074.2 kg/m3	–
290.1 K, Liquid, x1 = 0.1605	–	1077.9 kg/m3 and 1078 kg/m3	–
290.1 K, Liquid, x1 = 0.2632	0.511 S/m	–	–
290.1 K, Liquid, x1 = 0.3076	–	1089.1 kg/m3	141.3 mPa·s
291.1 K, Glass, x1 = 0.1402	–	–	122.8 mPa·s
291.1 K, Glass, x1 = 0.1605	–	–	2756 mPa·s and 2752 mPa·s
291.1 K, Glass, x1 = 0.1766	0.924 S/m and 0.925 S/m	–	–
291.1 K, Glass, x1 = 0.2119	0.759 S/m and 0.757 S/m	–	–
291.1 K, Liquid, x1 = 0.0803	1.63 S/m	–	–
291.1 K, Liquid, x1 = 0.1402	1.12 S/m	1073.7 kg/m3	–
291.1 K, Liquid, x1 = 0.1605	1.02 S/m	1077.5 kg/m3	–
291.1 K, Liquid, x1 = 0.2632	0.527 S/m	1085.5 kg/m3	118.9 mPa·s
291.1 K, Liquid, x1 = 0.3076	0.441 S/m and 0.442 S/m	1088.1 kg/m3	133.1 mPa·s
291.1 K, Liquid, x1 = 0.3555	0.332 S/m	–	–
291.1 K, Liquid, x1 = 0.4108	0.271 S/m	–	–
291.1 K, Liquid, x1 = 0.4688	0.192 S/m	–	–
292.1 K, Glass, x1 = 0.1605	–	–	1353 mPa·s and 597.3 mPa·s
292.1 K, Glass, x1 = 0.1766	0.951 S/m and 0.953 S/m	–	–
292.1 K, Glass, x1 = 0.2119	0.779 S/m and 0.781 S/m	–	–
292.1 K, Liquid, x1 = 0.1402	–	1073.2 kg/m3	80.8 mPa·s
292.1 K, Liquid, x1 = 0.1605	–	1076.9 kg/m3 and 1076.7 kg/m3	–
292.1 K, Liquid, x1 = 0.2632	0.543 S/m	–	–
293.1 K, Glass, x1 = 0.1605	–	–	589.1 mPa·s and 232.2 mPa·s
293.1 K, Glass, x1 = 0.1766	0.977 S/m and 0.979 S/m	–	–
293.1 K, Glass, x1 = 0.2119	0.805 S/m	–	–
293.1 K, Liquid, x1 = 0.0401	1.92 S/m	–	–
293.1 K, Liquid, x1 = 0.0586	1.91 S/m	–	–
293.1 K, Liquid, x1 = 0.0803	1.72 S/m	–	–
293.1 K, Liquid, x1 = 0.1197	1.36 S/m	1069.2 kg/m3	59.82 mPa·s
293.1 K, Liquid, x1 = 0.1402	1.19 S/m	1072.6 kg/m3	69.89 mPa·s
293.1 K, Liquid, x1 = 0.1605	1.08 S/m	1076.1 kg/m3 and 1076.2 kg/m3	–
293.1 K, Liquid, x1 = 0.2119	0.804 S/m	–	–
293.1 K, Liquid, x1 = 0.2632	0.564 S/m and 0.562 S/m	1085.4 kg/m3	106.4 mPa·s
293.1 K, Liquid, x1 = 0.3076	0.477 S/m and 0.479 S/m	1087.6 kg/m3	117.6 mPa·s
293.1 K, Liquid, x1 = 0.3555	0.357 S/m and 0.359 S/m	1089.2 kg/m3	136.9 mPa·s
293.1 K, Liquid, x1 = 0.4108	0.294 S/m and 0.293 S/m	1091.1 kg/m3	154.7 mPa·s
293.1 K, Liquid, x1 = 0.4688	0.214 S/m	–	–
293.1 K, Liquid, x1 = 0.5001	0.19 S/m and 0.191 S/m	–	–
294.1 K, Liquid, x1 = 0.1402	–	1072 kg/m3	66.11 mPa·s
294.1 K, Liquid, x1 = 0.1766	1 S/m	–	–
294.1 K, Liquid, x1 = 0.2119	0.826 S/m and 0.828 S/m	–	–
294.1 K, Liquid, x1 = 0.2632	0.585 S/m	–	–
295.1 K, Liquid, x1 = 0.0803	1.81 S/m	–	–
295.1 K, Liquid, x1 = 0.1402	–	1071.3 kg/m3	62.58 mPa·s
295.1 K, Liquid, x1 = 0.1766	1.03 S/m	–	–
295.1 K, Liquid, x1 = 0.2119	0.85 S/m and 0.852 S/m	–	–
295.1 K, Liquid, x1 = 0.2632	0.606 S/m	–	–
295.1 K, Liquid, x1 = 0.3555	0.387 S/m and 0.389 S/m	–	–
295.1 K, Liquid, x1 = 0.4108	0.32 S/m	–	–
296.1 K, Liquid, x1 = 0.1402	–	1070.6 kg/m3	59.29 mPa·s
296.1 K, Liquid, x1 = 0.1605	1.18 S/m	–	–
296.1 K, Liquid, x1 = 0.1766	1.05 S/m and 1.06 S/m	–	–
296.1 K, Liquid, x1 = 0.2119	0.873 S/m and 0.875 S/m	–	–
296.1 K, Liquid, x1 = 0.2632	0.628 S/m	–	–
296.1 K, Liquid, x1 = 0.3076	0.531 S/m and 0.533 S/m	–	–
296.1 K, Liquid, x1 = 0.4688	0.258 S/m	–	–
297.1 K, Liquid, x1 = 0.1402	–	1069.9 kg/m3	56.2 mPa·s
297.1 K, Liquid, x1 = 0.1766	1.08 S/m	–	–
297.1 K, Liquid, x1 = 0.2119	0.9 S/m	–	–
297.1 K, Liquid, x1 = 0.2632	0.651 S/m	–	–
298.1 K, Liquid, x1 = 0.0401	2.16 S/m	–	–
298.1 K, Liquid, x1 = 0.0586	2.14 S/m	–	–
298.1 K, Liquid, x1 = 0.0803	1.96 S/m	–	–
298.1 K, Liquid, x1 = 0.1197	1.56 S/m	1065.5 kg/m3 and 1065.9 kg/m3	46.3 mPa·s and 46.17 mPa·s
298.1 K, Liquid, x1 = 0.1402	1.38 S/m	1069.3 kg/m3	53.29 mPa·s
298.1 K, Liquid, x1 = 0.1605	1.25 S/m	1072.8 kg/m3 and 1072.7 kg/m3	59.39 mPa·s and 57.63 mPa·s
298.1 K, Liquid, x1 = 0.1766	1.11 S/m	–	–
298.1 K, Liquid, x1 = 0.2119	0.925 S/m and 0.921 S/m	–	–
298.1 K, Liquid, x1 = 0.2632	0.675 S/m and 0.669 S/m	1081.9 kg/m3 and 1081.7 kg/m3	80.58 mPa·s and 82.1 mPa·s
298.1 K, Liquid, x1 = 0.3076	0.573 S/m and 0.572 S/m	1084.1 kg/m3	89.42 mPa·s
298.1 K, Liquid, x1 = 0.3555	0.434 S/m and 0.435 S/m	1085.8 kg/m3	104.1 mPa·s and 104 mPa·s
298.1 K, Liquid, x1 = 0.4108	0.358 S/m and 0.355 S/m	1087.7 kg/m3	118 mPa·s
298.1 K, Liquid, x1 = 0.4688	0.287 S/m and 0.254 S/m	–	–
298.1 K, Liquid, x1 = 0.5001	0.241 S/m and 0.236 S/m	–	–
303.1 K, Liquid, x1 = 0.1605	–	1069.3 kg/m3	45.8 mPa·s
303.1 K, Liquid, x1 = 0.2632	–	1078.5 kg/m3	62.15 mPa·s
303.1 K, Liquid, x1 = 0.3076	–	1080.7 kg/m3	69.23 mPa·s
303.1 K, Liquid, x1 = 0.3555	–	1082.4 kg/m3	80.49 mPa·s
303.1 K, Liquid, x1 = 0.4108	–	1084.3 kg/m3	91.61 mPa·s
303.1 K, Liquid, x1 = 0.5001	0.295 S/m	–	–
308.1 K, Liquid, x1 = 0.1605	–	1065.9 kg/m3	35.89 mPa·s
308.1 K, Liquid, x1 = 0.2632	–	1075 kg/m3	48.72 mPa·s
308.1 K, Liquid, x1 = 0.3076	–	1077.2 kg/m3	54.47 mPa·s
308.1 K, Liquid, x1 = 0.3555	–	1079 kg/m3	63.27 mPa·s
308.1 K, Liquid, x1 = 0.4108	–	1080.9 kg/m3	72.28 mPa·s
313.1 K, Liquid, x1 = 0.1197	–	1055.4 kg/m3	23.09 mPa·s
313.1 K, Liquid, x1 = 0.1605	–	1062.4 kg/m3	28.53 mPa·s
313.1 K, Liquid, x1 = 0.2632	–	1072.9 kg/m3	40.23 mPa·s
313.1 K, Liquid, x1 = 0.3076	–	1072.2 kg/m3	43.26 mPa·s
313.1 K, Liquid, x1 = 0.3555	–	1075.6 kg/m3	50.46 mPa·s
313.1 K, Liquid, x1 = 0.4108	–	1077.6 kg/m3	57.88 mPa·s
313.1 K, Liquid, x1 = 0.5001	0.42 S/m	–	–
318.1 K, Liquid, x1 = 0.3076	–	1070.1 kg/m3	36.02 mPa·s
318.1 K, Liquid, x1 = 0.3555	–	1072.2 kg/m3	40.79 mPa·s
318.1 K, Liquid, x1 = 0.4108	–	1074.2 kg/m3	46.97 mPa·s
323.1 K, Liquid, x1 = 0.3555	–	1068.8 kg/m3	33.03 mPa·s
323.1 K, Liquid, x1 = 0.4108	–	1070.8 kg/m3	38.58 mPa·s
323.1 K, Liquid, x1 = 0.5001	0.58 S/m	–	–

— the NIST ThermoML archive (doi:10.1016/j.jct.2014.04.016)
